Source: patent publication US20220218781A1, “COMPOSITION FOR ENHANCEMENT OF BIOAVAILABILITY OF PHYTOCHEMICALS AND PROCESS FOR PREPARATION THEREOF” (OLENE LIFE SCIENCES PRIVATE LIMITED, priority 2019, published 2022)

Assay: Comparative self-dispersion study in water
Format: physicochemical
Conditions: without mechanical stirring, test product vs. standard unformulated reference product
Description: A comparative self-dispersion study was carried out between the ‘Composition of Example 1 (Test product)’ and ‘Standard unformulated lutein extract (Reference product)’.
A comparative self-dispersion study was carried out between the ‘Composition of Example 13 (Test product)’ and ‘Standard unformulated Boswellia extract (Reference product)’.
A comparative self-dispersion study was carried out between the ‘Composition of Example 16 (Test product)’ and ‘Standard unformulated Pepper extract (Reference product)’.
A comparative self dispersion study was carried out between the ‘Composition of Example 22 (Test product)’ and ‘Standard unformulated Coenzyme Q10 Extract (Reference product)’.
A comparative self dispersion study was carried out between the ‘Composition of Example 25 (Test product)’ and ‘Standard unformulated Palmitoylethanolamide (Reference product)’. The dispersion profile is given in FIG. 7A (test product) and FIG. 7B (reference product).

self-dispersion profile: non-dispersible
Structure (SMILES): COC1=C(OC)C(=O)C(C/C=C(\C)CC/C=C(\C)CC/C=C(\C)CC/C=C(\C)CC/C=C(\C)CC/C=C(\C)CC/C=C(\C)CC/C=C(\C)CC/C=C(\C)CCC=C(C)C)=C(C)C1=O [Coenzyme Q10]
